Source: ChEMBL document CHEMBL3352790, “Small molecule ghrelin receptor inverse agonists and antagonists” (J Med Chem, 2014)
Values belong to the molecule of their own block, whether it stands above or below them.

What was measured:
[1] = Oral bioavailability in rat; format: ADME, organism-based; settings: in vivo
[2] = target: T1, Growth hormone secretagogue receptor type 1 (Homo sapiens, UniProt Q92847); experiment: Binding affinity to human ghrelin receptor by receptor binding assay
Mus musculus [3] = species: Mus musculus; experiment: Reduction in fat content in mouse; format: functional; design: scale not given: the % may be the effect or the level left
[4] = target: T1, Growth hormone secretagogue receptor type 1; experiment: Antagonist activity against human ghrelin receptor by FLIPR assay
[5] = Unbound fraction rat brain; format: ADME, tissue-based
Mus musculus [6] = experiment: Reduction in food intake in C57BL/6J mouse at 30 mg/kg, ip after 2 hrs; format: functional; settings: route intraperitoneal

T1 sequence (Q92847 whole entry): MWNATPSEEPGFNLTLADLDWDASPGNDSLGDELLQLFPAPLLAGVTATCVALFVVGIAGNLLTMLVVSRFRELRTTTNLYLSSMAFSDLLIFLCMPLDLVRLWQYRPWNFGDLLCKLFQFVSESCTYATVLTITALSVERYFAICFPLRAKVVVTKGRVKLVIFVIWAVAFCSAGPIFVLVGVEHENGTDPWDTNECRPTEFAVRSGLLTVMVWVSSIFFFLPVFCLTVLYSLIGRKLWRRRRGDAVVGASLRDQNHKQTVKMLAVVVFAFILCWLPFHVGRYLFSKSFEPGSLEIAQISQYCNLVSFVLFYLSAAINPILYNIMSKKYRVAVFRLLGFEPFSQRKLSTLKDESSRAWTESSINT

- bioavailability [1]: 63%
- Ki [2]: 15 nM
SMILES: CCN(CC)CCCS(=O)(=O)N[C@H](CCc1ccccc1)c1nc(-c2ccc(OC)cc2)n[nH]1
- Activity (Mus musculus [3]): 50%

- IC50 [4]: 6.31 nM
- Fu [5]: 0.2%
SMILES: CN1CCN([C@@H](C(=O)NNc2cc(C(F)(F)F)cc(C(F)(F)F)c2)c2ccccc2Cl)CC1

- IC50 [4]: 3.98 nM
SMILES: O=C(NNc1cc(C(F)(F)F)cc(C(F)(F)F)c1)[C@@H](c1cccnc1)N1CCN2CCC[C@@H]2C1

SMILES: CC(NC(=O)N(Cc1ccccc1Cl)C1CCN(C)CC1)c1cccc(Cl)c1Cl (configuration not stated)
- inhibition in vivo at 30 mg/kg (Mus musculus [6]): 70%
